According to ChEMBL document CHEMBL5500383, “Recent advances and future directions on small molecule VEGFR inhibitors in oncological conditions” (Eur J Med Chem, 2024):
Values after ≈ are worked out from the molar mass of the structure shown.

Legend:
Histone deacetylase 4 = Histone deacetylase 4 (Homo sapiens, UniProt P56524); assay: Inhibition of HDAC4 (unknown origin)
A498 [1] = assay: Antiproliferative activity against human A498 cells assessed as growth inhibition at 10 uM after 48 hrs by sulforhodamine B assay relative to control; type: functional; parameters: scale not given: the % may be the effect or the level left
T47D = assay: Antiproliferative activity against human T47D cells assessed as growth inhibition at 10 uM after 48 hrs by sulforhodamine B assay relative to control; type: functional; parameters: scale not given: the % may be the effect or the level left
A498 [2] = assay: Cytotoxicity against human A498 cells assessed as reduction in cell viability incubated for 48 hrs by MTT assay; type: functional, cell-based; conditions: A498, 48 h
CAKI-1 = assay: Cytotoxicity against human CAKI-1 cells assessed as reduction in cell growth incubated for 48 hrs by MTT assay; type: functional, cell-based; conditions: CAKI-1, 48 h
[3] = Acute toxicity in ip dosed Swiss albino mouse assessed as lethal dose; type: organism-based; conditions: in vivo, read-out: ALD50
HepG2 [4] = assay: Anticancer activity against human HepG2 cells assessed as reduction in cell growth incubated for 24 hrs by MTT assay; type: functional, cell-based; conditions: HepG2, 24 h
HCT-116 [5] = assay: Cytotoxicity against human HCT-116 cells assessed as inhibition of cell growth incubated for 48 hrs by MTT assay; type: functional, cell-based; conditions: HCT-116, 48 h
HepG2 [6] = assay: Cytotoxicity against human HepG2 cells assessed as inhibition of cell growth incubated for 48 hrs by MTT assay; type: functional, cell-based; conditions: HepG2, 48 h
PC-3 [7] = assay: Cytotoxicity against human PC-3 cells assessed as inhibition of cell growth incubated for 48 hrs by MTT assay; type: functional, cell-based; conditions: PC-3, 48 h
MCF7 [8] = assay: Cytotoxicity against human MCF7 cells assessed as inhibition of cell growth incubated for 48 hrs by MTT assay; type: functional, cell-based; conditions: MCF7, 48 h
[9] = molecular target: T1, Vascular endothelial growth factor receptor 2 (Homo sapiens, UniProt P35968); assay: Inhibition of VEGFR2 (unknown origin)
T1 sequence (P35968 whole entry): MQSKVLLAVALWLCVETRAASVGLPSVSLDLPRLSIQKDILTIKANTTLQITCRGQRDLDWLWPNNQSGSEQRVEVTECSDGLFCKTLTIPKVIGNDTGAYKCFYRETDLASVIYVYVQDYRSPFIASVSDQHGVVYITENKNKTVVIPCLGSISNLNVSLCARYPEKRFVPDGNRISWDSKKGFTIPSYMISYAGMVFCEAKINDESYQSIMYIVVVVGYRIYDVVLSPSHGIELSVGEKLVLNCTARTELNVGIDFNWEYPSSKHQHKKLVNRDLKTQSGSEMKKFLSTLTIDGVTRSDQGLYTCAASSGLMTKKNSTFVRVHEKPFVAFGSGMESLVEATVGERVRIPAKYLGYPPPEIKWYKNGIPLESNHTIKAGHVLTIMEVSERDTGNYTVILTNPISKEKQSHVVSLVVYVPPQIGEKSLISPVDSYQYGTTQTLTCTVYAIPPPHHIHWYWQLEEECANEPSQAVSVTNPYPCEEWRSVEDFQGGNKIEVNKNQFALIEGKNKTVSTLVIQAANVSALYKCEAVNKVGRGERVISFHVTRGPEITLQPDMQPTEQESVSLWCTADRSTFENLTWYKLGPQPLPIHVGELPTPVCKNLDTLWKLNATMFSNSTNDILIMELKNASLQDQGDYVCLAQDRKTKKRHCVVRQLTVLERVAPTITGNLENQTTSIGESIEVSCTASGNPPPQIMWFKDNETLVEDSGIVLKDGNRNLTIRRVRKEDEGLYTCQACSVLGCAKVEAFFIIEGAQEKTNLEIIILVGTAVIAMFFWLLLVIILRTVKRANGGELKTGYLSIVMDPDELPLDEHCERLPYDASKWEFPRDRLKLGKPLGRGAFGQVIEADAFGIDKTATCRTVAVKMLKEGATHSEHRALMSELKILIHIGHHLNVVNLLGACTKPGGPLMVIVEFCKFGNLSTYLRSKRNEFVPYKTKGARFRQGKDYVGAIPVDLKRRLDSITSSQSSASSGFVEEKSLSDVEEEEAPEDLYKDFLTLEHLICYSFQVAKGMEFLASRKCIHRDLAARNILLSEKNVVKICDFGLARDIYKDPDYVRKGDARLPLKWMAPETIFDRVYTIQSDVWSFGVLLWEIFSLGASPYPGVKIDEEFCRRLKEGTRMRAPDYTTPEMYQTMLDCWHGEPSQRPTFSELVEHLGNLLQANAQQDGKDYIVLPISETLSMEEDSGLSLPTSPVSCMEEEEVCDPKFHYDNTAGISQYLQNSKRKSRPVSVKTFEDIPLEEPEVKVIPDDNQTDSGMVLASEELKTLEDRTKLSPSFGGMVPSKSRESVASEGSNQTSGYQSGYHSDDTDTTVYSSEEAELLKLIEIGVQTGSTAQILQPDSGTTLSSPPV

PC-3 [10] = assay: Antiproliferative activity against human PC-3 cells assessed as reduction in cell viability incubated for 24 hrs by MTT assay; type: functional, cell-based; conditions: PC-3, 24 h
HepG2 [11] = assay: Antiproliferative activity against human HepG2 cells assessed as reduction in cell viability incubated for 24 hrs by MTT assay; type: functional, cell-based; conditions: HepG2, 24 h
MCF7 [12] = assay: Antiproliferative activity against human MCF7 cells assessed as reduction in cell viability incubated for 24 hrs by MTT assay; type: functional, cell-based; conditions: MCF7, 24 h
[13] = Cytotoxicity against human WI-38 cells assessed as reduction in cell growth; type: toxicity, cell-based
HL-60 = assay: Cytotoxicity against human HL-60 cells assessed as reduction in cell growth; type: functional, cell-based
[14] = molecular target: T1, Vascular endothelial growth factor receptor 2; assay: Inhibition of human VEGFR2 by discoverX kinome scan assay
HepG2 [15] = assay: Cytotoxicity against human HepG2 cells assessed as reduction in cell viability measured after 72 hrs by MTT assay; type: functional, cell-based; conditions: HepG2, 72 h
HCT-116 [16] = assay: Cytotoxicity against human HCT-116 cells assessed as reduction in cell viability measured after 72 hrs by MTT assay; type: functional, cell-based; conditions: HCT-116, 72 h
[17] = molecular target: T1, Vascular endothelial growth factor receptor 2; assay: Inhibition of human recombinant VEGFR2 using biotinylated poly-GluTyr (4:1) as susbtrate measured for 1 hr by ELISA method
MCF7 [18] = assay: Cytotoxicity against human MCF7 cells assessed as reduction in cell viability measured after 72 hrs by MTT assay; type: functional, cell-based; conditions: MCF7, 72 h
[19] = Cytotoxicity against African green monkey Vero cells assessed as inhibition of cell growth incubated for 24 hrs by MTT assay; type: toxicity, cell-based, Chlorocebus sabaeus
[20] = molecular target: T1, Vascular endothelial growth factor receptor 2; assay: Inhibition of VEGFR2 (unknown origin) by Z'-Lyte kinase assay
Histone deacetylase 1 = Histone deacetylase 1 (Homo sapiens, UniProt Q13547); assay: Inhibition of HDAC1 (unknown origin)
Chain of Histone deacetylase 1 (Q13547 whole entry): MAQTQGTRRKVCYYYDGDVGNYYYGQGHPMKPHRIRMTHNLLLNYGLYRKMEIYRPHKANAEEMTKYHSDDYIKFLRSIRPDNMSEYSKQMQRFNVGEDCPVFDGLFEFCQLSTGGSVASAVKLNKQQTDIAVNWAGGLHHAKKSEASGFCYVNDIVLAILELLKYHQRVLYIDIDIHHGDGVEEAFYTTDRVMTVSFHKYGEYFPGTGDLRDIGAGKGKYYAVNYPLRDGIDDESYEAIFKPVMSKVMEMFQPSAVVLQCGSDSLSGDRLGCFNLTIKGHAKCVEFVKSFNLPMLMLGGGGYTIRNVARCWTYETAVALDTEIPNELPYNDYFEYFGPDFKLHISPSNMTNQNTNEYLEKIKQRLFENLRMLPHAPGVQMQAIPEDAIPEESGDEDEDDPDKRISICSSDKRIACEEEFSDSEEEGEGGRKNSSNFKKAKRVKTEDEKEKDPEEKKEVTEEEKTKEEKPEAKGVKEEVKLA

[21] = molecular target: T2, Protein deacetylase HDAC6 (Homo sapiens, UniProt Q9UBN7); assay: Inhibition of HDAC6 (unknown origin)
T2 sequence (Q9UBN7 whole entry): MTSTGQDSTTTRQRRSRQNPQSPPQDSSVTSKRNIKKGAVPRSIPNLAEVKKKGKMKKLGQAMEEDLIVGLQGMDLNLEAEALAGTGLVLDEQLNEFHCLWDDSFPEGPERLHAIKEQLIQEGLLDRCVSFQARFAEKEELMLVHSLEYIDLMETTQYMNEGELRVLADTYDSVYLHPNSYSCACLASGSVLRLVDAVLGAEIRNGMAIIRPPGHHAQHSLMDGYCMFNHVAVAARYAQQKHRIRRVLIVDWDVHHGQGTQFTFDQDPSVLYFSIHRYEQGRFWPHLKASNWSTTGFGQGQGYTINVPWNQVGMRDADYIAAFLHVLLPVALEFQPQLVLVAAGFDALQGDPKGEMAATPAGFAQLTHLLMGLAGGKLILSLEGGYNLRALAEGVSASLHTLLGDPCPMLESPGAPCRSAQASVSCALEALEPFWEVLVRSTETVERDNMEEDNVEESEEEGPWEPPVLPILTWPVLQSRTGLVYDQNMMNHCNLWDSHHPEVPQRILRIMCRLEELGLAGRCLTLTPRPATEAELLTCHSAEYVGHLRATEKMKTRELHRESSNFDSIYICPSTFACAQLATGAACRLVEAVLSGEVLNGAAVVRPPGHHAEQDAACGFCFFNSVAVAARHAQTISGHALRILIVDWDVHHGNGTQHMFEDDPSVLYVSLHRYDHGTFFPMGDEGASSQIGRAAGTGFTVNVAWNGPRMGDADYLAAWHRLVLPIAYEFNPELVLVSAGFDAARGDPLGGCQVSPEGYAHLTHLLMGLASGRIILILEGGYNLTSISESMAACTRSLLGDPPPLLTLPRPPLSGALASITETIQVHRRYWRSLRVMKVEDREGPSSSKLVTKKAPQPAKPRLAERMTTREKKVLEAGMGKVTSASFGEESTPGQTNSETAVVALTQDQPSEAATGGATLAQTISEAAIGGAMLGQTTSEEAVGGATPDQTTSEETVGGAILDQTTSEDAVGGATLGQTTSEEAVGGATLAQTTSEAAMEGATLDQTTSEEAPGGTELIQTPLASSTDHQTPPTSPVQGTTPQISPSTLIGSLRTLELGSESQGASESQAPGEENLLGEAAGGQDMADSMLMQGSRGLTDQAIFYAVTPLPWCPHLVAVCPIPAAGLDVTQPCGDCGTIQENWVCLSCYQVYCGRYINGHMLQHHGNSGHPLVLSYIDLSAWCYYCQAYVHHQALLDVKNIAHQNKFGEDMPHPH

[22] = molecular target: Vascular endothelial growth factor receptor 3 (Homo sapiens, UniProt P35916); assay: Inhibition of VEGFR3 (unknown origin)
Chain of Vascular endothelial growth factor receptor 3 (P35916 whole entry): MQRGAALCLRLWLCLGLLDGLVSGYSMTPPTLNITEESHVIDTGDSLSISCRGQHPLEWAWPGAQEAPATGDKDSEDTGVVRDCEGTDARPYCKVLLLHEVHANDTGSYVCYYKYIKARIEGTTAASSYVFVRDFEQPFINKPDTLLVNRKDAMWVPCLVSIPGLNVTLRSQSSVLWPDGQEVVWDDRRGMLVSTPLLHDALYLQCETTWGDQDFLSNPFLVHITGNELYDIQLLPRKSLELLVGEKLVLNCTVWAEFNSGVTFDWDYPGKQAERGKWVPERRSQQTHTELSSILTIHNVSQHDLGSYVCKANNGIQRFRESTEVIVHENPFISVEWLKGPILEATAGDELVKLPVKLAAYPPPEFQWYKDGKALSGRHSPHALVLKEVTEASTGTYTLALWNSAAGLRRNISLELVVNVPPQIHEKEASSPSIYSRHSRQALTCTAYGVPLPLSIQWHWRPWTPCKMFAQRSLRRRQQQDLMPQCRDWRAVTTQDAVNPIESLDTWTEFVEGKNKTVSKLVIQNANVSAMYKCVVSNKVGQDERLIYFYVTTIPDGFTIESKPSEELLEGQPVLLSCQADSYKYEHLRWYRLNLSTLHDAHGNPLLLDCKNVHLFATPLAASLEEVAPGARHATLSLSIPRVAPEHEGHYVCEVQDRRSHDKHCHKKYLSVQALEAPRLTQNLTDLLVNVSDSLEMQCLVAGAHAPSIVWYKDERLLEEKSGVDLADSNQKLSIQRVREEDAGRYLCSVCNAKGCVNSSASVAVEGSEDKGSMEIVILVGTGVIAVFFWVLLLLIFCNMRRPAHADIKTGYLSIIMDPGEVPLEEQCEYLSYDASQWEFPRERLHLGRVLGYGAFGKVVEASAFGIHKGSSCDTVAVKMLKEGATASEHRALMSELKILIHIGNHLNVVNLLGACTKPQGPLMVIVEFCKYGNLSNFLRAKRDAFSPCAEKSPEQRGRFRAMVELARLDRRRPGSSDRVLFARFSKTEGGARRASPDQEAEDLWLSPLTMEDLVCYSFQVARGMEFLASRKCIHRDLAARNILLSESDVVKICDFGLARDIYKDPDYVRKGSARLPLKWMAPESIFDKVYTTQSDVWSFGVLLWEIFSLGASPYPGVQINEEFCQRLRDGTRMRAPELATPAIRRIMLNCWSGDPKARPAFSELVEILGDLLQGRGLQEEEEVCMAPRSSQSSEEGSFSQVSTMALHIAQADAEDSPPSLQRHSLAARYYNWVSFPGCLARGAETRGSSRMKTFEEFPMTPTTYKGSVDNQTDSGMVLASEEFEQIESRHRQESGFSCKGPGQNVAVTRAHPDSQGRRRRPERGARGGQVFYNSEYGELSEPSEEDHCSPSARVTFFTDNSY

[23] = molecular target: Vascular endothelial growth factor receptor 1 (Homo sapiens, UniProt P17948); assay: Inhibition of VEGFR1 (unknown origin)
NCI-H1650 = assay: Antiproliferative activity against human NCI-H1650 cells assessed as reduction in cell viability; type: functional, cell-based
NCI-H441 = assay: Antiproliferative activity against human NCI-H441 cells assessed as reduction in cell viability; type: functional, cell-based
NCI-H1975 = assay: Antiproliferative activity against human NCI-H1975 cells assessed as reduction in cell viability; type: functional, cell-based
A549 = assay: Antiproliferative activity against human A549 cells assessed as reduction in cell viability; type: functional, cell-based
[24] = molecular target: Serine/threonine-protein kinase B-raf (Homo sapiens, UniProt P15056); assay: Inhibition of wild type BRAF (unknown origin)
Chain of Serine/threonine-protein kinase B-raf (Homo sapiens, UniProt P15056) (P15056 whole entry): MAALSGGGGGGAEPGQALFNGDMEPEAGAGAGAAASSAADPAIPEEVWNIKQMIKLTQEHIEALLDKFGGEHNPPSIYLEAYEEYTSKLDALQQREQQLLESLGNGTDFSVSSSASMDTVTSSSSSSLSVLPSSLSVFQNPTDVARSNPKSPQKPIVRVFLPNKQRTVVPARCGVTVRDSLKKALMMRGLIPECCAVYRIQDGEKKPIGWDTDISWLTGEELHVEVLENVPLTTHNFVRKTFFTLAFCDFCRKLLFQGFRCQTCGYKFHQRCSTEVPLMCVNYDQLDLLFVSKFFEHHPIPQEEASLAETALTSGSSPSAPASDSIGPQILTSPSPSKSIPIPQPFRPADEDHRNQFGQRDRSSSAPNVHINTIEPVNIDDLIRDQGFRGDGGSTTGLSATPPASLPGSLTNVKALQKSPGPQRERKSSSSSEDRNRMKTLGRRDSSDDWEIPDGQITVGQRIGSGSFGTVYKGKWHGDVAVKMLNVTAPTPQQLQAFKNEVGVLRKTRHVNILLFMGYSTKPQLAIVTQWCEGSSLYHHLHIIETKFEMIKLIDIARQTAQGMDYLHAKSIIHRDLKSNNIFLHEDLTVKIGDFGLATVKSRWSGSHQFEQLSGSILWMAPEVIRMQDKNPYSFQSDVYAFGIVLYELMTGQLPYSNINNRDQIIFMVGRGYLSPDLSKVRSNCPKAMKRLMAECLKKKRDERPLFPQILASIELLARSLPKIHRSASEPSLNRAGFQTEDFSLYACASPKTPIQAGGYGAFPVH

[25] = molecular target: Serine/threonine-protein kinase B-raf (Homo sapiens, UniProt P15056, V600E); assay: Inhibition of BRAF V600E mutant (unknown origin)
[26] = molecular target: T1, Vascular endothelial growth factor receptor 2; assay: Inhibition of VEGFR2 (unknown origin) incubated for 1 hr in presence of ATP by ELISA method
[27] = Cytotoxicity against HUVEC cells assessed as cell growth inhibition incubated for 72 hrs by MTT assay; type: toxicity, cell-based; conditions: human
[28] = molecular target: T1, Vascular endothelial growth factor receptor 2; assay: Inhibition of VEGFR2 (unknown origin) by kinase profiling assay

Chain of Histone deacetylase 4 (P56524 whole entry): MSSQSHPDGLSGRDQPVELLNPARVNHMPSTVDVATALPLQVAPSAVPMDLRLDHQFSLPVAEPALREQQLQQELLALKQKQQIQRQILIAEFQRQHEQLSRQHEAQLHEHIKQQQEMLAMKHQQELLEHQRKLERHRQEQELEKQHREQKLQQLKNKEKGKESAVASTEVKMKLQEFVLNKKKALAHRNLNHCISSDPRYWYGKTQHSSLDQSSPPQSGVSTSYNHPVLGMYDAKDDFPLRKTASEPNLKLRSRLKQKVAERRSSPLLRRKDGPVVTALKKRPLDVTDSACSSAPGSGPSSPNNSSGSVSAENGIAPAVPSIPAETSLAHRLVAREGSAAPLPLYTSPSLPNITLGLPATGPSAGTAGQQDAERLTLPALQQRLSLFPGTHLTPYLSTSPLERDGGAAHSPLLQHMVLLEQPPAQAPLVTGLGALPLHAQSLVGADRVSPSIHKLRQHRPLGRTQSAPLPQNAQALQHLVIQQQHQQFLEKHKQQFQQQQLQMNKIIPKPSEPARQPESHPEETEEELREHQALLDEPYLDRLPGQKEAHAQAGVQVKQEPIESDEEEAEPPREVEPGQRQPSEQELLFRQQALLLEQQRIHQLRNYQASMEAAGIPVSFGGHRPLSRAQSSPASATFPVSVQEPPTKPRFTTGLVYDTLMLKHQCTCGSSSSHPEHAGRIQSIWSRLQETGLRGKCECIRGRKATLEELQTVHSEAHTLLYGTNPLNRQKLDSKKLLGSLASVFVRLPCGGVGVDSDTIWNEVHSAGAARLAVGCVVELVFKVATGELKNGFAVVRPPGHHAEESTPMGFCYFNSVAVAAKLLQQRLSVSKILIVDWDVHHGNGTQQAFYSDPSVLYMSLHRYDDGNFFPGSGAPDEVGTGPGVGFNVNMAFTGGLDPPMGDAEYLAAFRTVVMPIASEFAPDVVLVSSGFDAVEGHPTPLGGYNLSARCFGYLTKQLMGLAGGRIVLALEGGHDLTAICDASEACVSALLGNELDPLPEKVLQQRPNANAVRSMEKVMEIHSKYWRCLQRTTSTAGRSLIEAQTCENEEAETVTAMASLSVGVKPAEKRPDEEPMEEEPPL

Cc1c2ccc(N(C)c3ccnc(Nc4ccc(C(=O)Nc5ccccc5N)cc4)n3)cc2nn1C
IC50 (Histone deacetylase 4): > 10 µM

O=C(Nc1ccccc1)Nc1ccc(Nc2ncnc3sc4c(c23)CCOC4)cc1
Activity (A498 [1]): 77.65% | Activity (T47D): 85.5%

COc1ccc(/C=N/n2c(SCC(=O)c3ccc(Cl)cc3)nnc2-c2cc3ccccc3[nH]2)cc1
IC50 (A498 [2]): 2.2 µM | IC50 (CAKI-1): 0.89 µM

CCOc1ccc(Nc2nnc3c4c(cccc24)NC(=S)N3Cc2ccccc2)cc1
LD50 [3]: > 800 mg/kg | IC50 (HepG2 [4]): 0.22 µM

N=c1cc(N)nc2sc(NC(=O)c3cccs3)nn12
IC50 (HCT-116 [5]): 33.1 µM | IC50 (HepG2 [6]): 4.22 µM | IC50 (PC-3 [7]): 7.76 µM | IC50 (MCF7 [8]): 8.45 µM | IC50 [9]: 8.2 µM

CCn1c(SCC(=O)NNC(=O)c2ccccc2)nc2ccc([N+](=O)[O-])cc2c1=O
IC50 (PC-3 [10]): 26.1 µg/mL (≈ 61.1 µM) | IC50 (HepG2 [11]): 17.2 µg/mL (≈ 40.3 µM) | IC50 (MCF7 [12]): 30.8 µg/mL (≈ 72.2 µM)

C/C(=N\NC(=S)Nc1ccccc1)c1nnn(-c2ccc(F)cc2)c1C
IC50 [9]: 0.067 µM | IC50 [13]: 56.6 µM | IC50 (HL-60): 1.09 µM

CCNC(=S)NS(=O)(=O)c1ccc(NC(=O)CSc2cc3ccccc3c(=O)n2CC)cc1
IC50 [14]: 3.1 µM

Cc1cc(C)nc(NS(=O)(=O)c2ccc(NN=C3C(=O)NNC3=O)cc2)n1
IC50 (HepG2 [15]): 6.43 µM | IC50 (HCT-116 [16]): 9.66 µM | IC50 [17]: 0.14 µM | IC50 (MCF7 [18]): 10.6 µM | IC50 at 24 h [19]: 39.4 µM

O=C1C(=O)N(CN2CCN(c3cc(=O)[nH]c4ccc(F)cc34)CC2)c2ccccc21
IC50 [20]: 0.0638 µM

Cc1c2ccc(Nc3ccnc(Nc4ccc(NC(=O)CCCCCCC(=O)NO)cc4)n3)cc2nn1C
IC50 (Histone deacetylase 1): 0.12 µM | IC50 [21]: 0.094 µM | IC50 [22]: 0.054 µM | IC50 (Histone deacetylase 4): > 10 µM | IC50 [9]: 0.016 µM | IC50 [23]: 0.018 µM

COc1ccc(C2CC(c3ccc(Cl)cc3Cl)=NN2c2nc(C)c(C(=O)Nc3ccccc3)s2)cc1OC (stereo unspecified)
IC50 (NCI-H1650): 3.54 µM | IC50 (NCI-H441): 3.8 µM | IC50 (NCI-H1975): 4.41 µM | IC50 (A549): 2.92 µM

O=C(CSc1nc2sc3c(c2c(=O)n1-c1ccc(Cl)cc1)CCCC3)NNC(=O)Nc1ccc(Cl)c(C(F)(F)F)c1
IC50 [24]: 0.05 µM | IC50 [25]: 0.063 µM | IC50 [9]: 0.049 µM

CNC(=O)c1nc(Nc2ccc(NC(=O)Nc3cccc(C)c3)cc2)c2ccccc2n1
IC50 [26]: 0.0121 µM

COc1ccc(-c2cc3c(ccn4nc(-c5cccnc5)nc34)o2)cc1
IC50 at 72 h [27]: 17.4 µM | IC50 [14]: 38.7 µM | IC50 [28]: 38.7 µM

CCOC(=O)c1sc(N2N=C(c3ccc(Cl)cc3Cl)CC2c2ccc(OC)cc2)nc1C (stereo unspecified)
IC50 (NCI-H1650): 5.68 µM | IC50 (NCI-H441): 4.76 µM | IC50 (NCI-H1975): 6.16 µM | IC50 (A549): 4.22 µM
